Series [1] can be described thus: First-in-human proof of concept study of oral branaplam in infants with Type 1 SMA: PK and safety. In kind it is in vivo. The text has this:
• Principle set-up of a pediatric ACAT/PBPK model in GastroPlus™ software including physico-chemical parameters, physiological parameters, and formulation factors. The ACAT model was linked to a full PBPK model in which tissue-to-plasma concentration ratios were estimated via in silico method provided by GastroPlus™ software. • Estimation of the clearance (CL) using plasma concentrations of branaplam from an open-label multi-part first-in-human proof of concept study of oral branaplam, Part 1 only. […] The branaplam doses were escalated in subsequent cohorts until MTD was determined or when PK results confirmed that the MTD could not be reached due to a potential pharmacokinetic exposure plateau at higher doses. […]
The aim of part one of this study was to determine the safety and tolerability of ascending weekly doses and to estimate the maximum tolerated dose (MTD) of oral/enteral branaplam (see Example 3) in infants with Type 1 SMA. All patients had exactly 2 copies of the SMN2 gene, as determined e.g. by quantitative real time PCR or droplet digital PCR.
Patients were dosed once weekly with branaplam. The branaplam doses were escalated in subsequent cohorts until MTD was determined or when PK results confirmed that the MTD could not be reached due to a potential pharmacokinetic exposure plateau at higher doses. […]

In the next series the test system is mutant HTT protein. As to the kind of experiment: Repeat dose timecourse study in BacHD mice: HTT protein (Western blot). In kind it is in vivo. As for the experimental part: At 72 h 168 h, 240 h and 336 h (branaplam 24 mg/kg) after the last treatment (vehicle or 24 mg/kg branaplam for 1 week or 3 weeks), blood, CSF, and tissue samples were obtained for PK and PD analysis. To collect CSF, mice were placed in a rodent anesthesia induction chamber where they are exposed to 4-5% isoflurane in 100% oxygen carrier gas. Once an appropriate plane of anesthesia was achieved, they were moved to a nose cone so that maintenance levels of isoflurane (1-3%) could be delivered throughout the procedure. The dorsal aspect of their cervical and occipital region was surgically prepped to visualize the dura mater under a microscope. A glass micropipette attached to a micromanipulator was introduced to the cisterna magna via a puncture through the dura mater at a point where no vasculature was visualized, and CSF was allowed to flow into the micropipette via capillary action. After approximately 15-30 minutes, the micropipette was removed from the cisterna magna, the CSF sample was transferred into Eppendorf tubes, flash frozen in liquid nitrogen, and stored at −80° C.
Following CSF collection, mice were kept under anesthesia with isoflurane. Blood was obtained via submandibular vein bleeds and collected for RNA extraction (PD analysis) using RNAprotect Animal Blood Tubes, and plasma (PK analysis) using K2EDTA coated tubes. Cells were removed from plasma by centrifugation for 10 min at 2000×g at 4° C., and plasma samples were stored at −80° C. Following blood collection, mice were given a lethal dose of ketamine/xylazine ([…] of a 10 mg:1 mg), and perfused with 18 mL of 0.9% cold saline mixed with 2 mL of RNAlater (Ambion) solution for tissue collection. Liver, skeletal muscle, brain striatum, brain cortex, hemibrain and cerebellum samples were flash frozen in liquid nitrogen and stored at −80° C.
Snap-frozen mouse tissue samples were homogenized in RIPA buffer with protease and phosphatase inhibitor (Thermo Scientific) by Precellys at 6000 rpm for 40 sec. Supernatant was obtained by centrifugation for 20 min at 13,000 rpm at 4° C. Total protein concentration was quantified using the BCA protein Assay (Thermo Scientific). Samples were resolved in 3-8% Tris-Acetate protein gel under reducing condition. Proteins were transferred onto PVDF membrane (Millipore) and western blot analysis was performed using […] anti-Huntingtin antibody (Millipore #MAB2166), mouse anti-actin (Sigma, #A5316) and mouse anti-vinculin (Bio-Rad, #MCA465). Protein bands were quantified by Image J.
With a view to characterize the time course of HTT protein lowering and recovery and to better model the PK-PD relationship an extended time-course study was performed. BacHD mice received three weekly, oral doses of 24 mg/kg branaplam for three weeks. […]
On the technique in general: A western blot detects proteins with antibodies after separation by electrophoresis.

Where [2] appears, read: 24 mg/kg, 3 weeks, time after last dose.

On to `CC1(C)CC(Oc2ccc(-c3ccc(-c4cn[nH]c4)cc3O)nn2)CC(C)(C)N1` [Compound 18, 5-(1H-pyrazol-4-yl)-2-(6-((2,2,6,6-tetramethylpiperidin-4-yl)oxy)pyridazin-3-yl)phenol], for which, in series [1] (human, plasma, Type 1 SMA patients, oral, nominal dose range 6 to 60 mg/m^2, read-out: median time of maximum concentration (Tmax) in plasma), the Tmax lay in the range of 2.97 to 4 h. The dose-limiting toxicity result in series [1] (infants with Type 1 SMA, once weekly 6 to 60 mg/m^2, exposure 4-33 months) is “No dose-limiting toxicity was observed”. The “maximal HTT protein lowering (relative to vehicle)” value in the series on mutant HTT protein (24 mg/kg oral three times weekly for 3 weeks, 72 h after last dose) is “approximately 45%”. Also, the “mutant HTT protein, 1 week versus 3 weeks of dosing” value in the series with mutant HTT protein (24 mg/kg oral, three times weekly) is reported as “time-dependent lowering trend”. In the series on mutant HTT protein (setting [2]), the “return of HTT protein to baseline, cortex” value lay in the range of 72 to 168 h and the “return of HTT protein to baseline, striatum” value is 72 to 336 h.

(Values after patent US20240216369A1, “THE USE OF A SPLICING MODULATOR FOR A TREATMENT SLOWING PROGRESSION OF HUNTINGTON'S DISEASE” (Novartis AG, priority 2019, published 2024).)
